Experimental data published in the supplement of paper PMC10307832.

Legend:
Test in all cases: relative viability (nuclei count vs DMSO), 5 days (fraction); higher = more cells survive
[1] = compound: CC[C@H](Nc1ncnc2[nH]cnc12)c1nc2cccc(F)c2c(=O)n1-c1ccccc1 [Idelalisib] + CC(C)C[C@H](NC(=O)[C@H](Cc1ccccc1)NC(=O)c1cnccn1)B(O)O [Bortezomib] (partner 0.002 µM)
In short: (§1)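 Lung cancer cell lines, seeded in 1536-well plates, were treated the following day by pin tool with a single drug or with five library-drug doses (not always all listed) in √10 steps on top of a fixed anchor-drug dose. Cells were fixed and nuclei stained in one step after 5 days, and nuclei were counted. Relative viability is the nuclei count for treated wells divided by that for vehicle wells, reported as medians of duplicate plates.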

[2] = compound: CC[C@H](Nc1ncnc2[nH]cnc12)c1nc2cccc(F)c2c(=O)n1-c1ccccc1 [Idelalisib] + Nc1nc2[nH]cc(CCc3ccc(C(=O)N[C@@H](CCC(=O)O)C(=O)O)cc3)c2c(=O)[nH]1 [Pemetrexed] (partner 0.2 µM)
In short: as §1

[3] = compound: Nc1nc2[nH]cc(CCc3ccc(C(=O)N[C@@H](CCC(=O)O)C(=O)O)cc3)c2c(=O)[nH]1 [Pemetrexed] + C[C@]1(O)C[C@@H](c2nc(-c3ccc4ccc(-c5ccccc5)nc4c3)c3c(N)nccn32)C1 [Linsitinib] (partner 1 µM)
In short: as §1

[4] = compound: CC[C@H](Nc1ncnc2[nH]cnc12)c1nc2cccc(F)c2c(=O)n1-c1ccccc1 [Idelalisib] + CC1(C)CCC(c2ccc(Cl)cc2)=C(CN2CCN(c3ccc(C(=O)NS(=O)(=O)c4ccc(N[C@H](CCN5CCOCC5)CSc5ccccc5)c(S(=O)(=O)C(F)(F)F)c4)cc3)CC2)C1 [Navitoclax] (partner 0.5 µM)
In short: as §1

Row | Cell Line | relative viability ([1]; first compound 0.04 µM) | relative viability ([1]; first compound 0.1265 µM) | relative viability ([1]; first compound 1.265 µM) | relative viability ([1]; first compound 4 µM) | relative viability ([2]; first compound 0.04 µM) | relative viability ([2]; first compound 0.1265 µM) | relative viability ([2]; first compound 0.4 µM) | relative viability ([2]; first compound 1.265 µM) | relative viability ([2]; first compound 4 µM) | relative viability ([3]; first compound 0.006325 µM) | relative viability ([3]; first compound 0.02 µM) | relative viability ([3]; first compound 0.06325 µM) | relative viability ([3]; first compound 0.2 µM) | relative viability ([4]; first compound 0.04 µM) | relative viability ([4]; first compound 0.1265 µM) | relative viability ([4]; first compound 0.4 µM) | relative viability ([4]; first compound 1.265 µM) | relative viability ([4]; first compound 4 µM) | relative viability ([1]; first compound 0.4 µM) | relative viability ([3]; first compound 0.002 µM)
1 | HCC-78 | 0.365 | 0.423 | 0.46 | 0.266 | 0.664 | 0.956 | 0.87 | 0.86 | 0.935 | 0.384 | 0.482 | 0.26 | 0.18 | 0.762 | 0.648 | 0.682 | 0.797 | 0.505 | – | –
2 | HCC-366 | 1 | 1.11 | 1.03 | 0.931 | 0.178 | 0.163 | 0.214 | 0.138 | 0.21 | 0.513 | 0.677 | 0.707 | 0.567 | 1.11 | 1.11 | 1.01 | 1.01 | 0.97 | 1 | 0.675
3 | HCC-827 | 1.1 | 0.99 | 1.17 | 1.07 | 0.267 | 0.218 | 0.232 | 0.249 | 0.25 | 0.946 | 1.02 | 0.997 | 0.846 | 1.06 | 1.05 | 1.03 | 1.03 | 0.964 | 1.03 | 0.843
4 | IA-LM | 0.987 | 0.847 | 0.88 | 0.889 | – | – | – | – | – | 0.488 | 0.784 | 0.702 | 0.644 | 0.905 | 0.856 | 1.01 | 1.08 | 0.919 | 0.956 | 0.484
5 | LCLC-103H | 1.07 | 1.24 | 1.04 | 0.911 | 0.508 | 0.456 | 0.471 | 0.505 | 0.477 | 1.03 | 1.14 | 1.16 | 0.992 | – | – | – | – | – | 1.04 | 1.07
6 | LK-2 | – | – | – | – | 0.344 | 0.14 | – | 0.324 | 0.404 | 0.307 | 0.514 | 0.448 | 0.341 | 0.99 | 0.835 | – | 1.02 | 0.729 | – | 0.339
7 | NCI-H358 | – | – | – | – | 0.18 | 0.171 | 0.182 | 0.168 | 0.157 | 0.666 | 0.514 | 0.261 | 0.282 | – | – | – | – | – | – | 0.641
8 | NCI-H522 | – | – | – | – | 1.3 | 0.99 | 0.995 | 1.21 | 1.05 | – | – | – | – | – | – | – | – | – | – | –
9 | NCI-H650 | 0.693 | 0.998 | 1.13 | 0.662 | 0.983 | 0.995 | 0.923 | 0.77 | 0.92 | 0.983 | 1.1 | 0.944 | 0.839 | – | – | – | – | – | 0.735 | 0.651
10 | NCI-H661 | 0.679 | 0.658 | 0.661 | 0.628 | 0.973 | 0.926 | 0.911 | 0.952 | 0.924 | 0.515 | 0.637 | 0.505 | 0.561 | – | – | – | – | – | 0.496 | 0.632
11 | NCI-H727 | 0.848 | 1.21 | 1.22 | 0.791 | – | – | – | – | – | 0.272 | 0.218 | 0.332 | 0.264 | 0.454 | 0.57 | 0.416 | 0.548 | 0.354 | 0.632 | 0.154
12 | NCI-H1299 | 1.03 | 1.03 | 1.09 | 1.03 | – | – | – | – | – | 0.929 | 1.07 | 0.992 | 0.471 | 1.04 | 1.01 | 1.07 | 1.12 | 1.08 | 1.02 | 0.926
13 | NCI-H1395 | – | – | – | – | 0.915 | 0.859 | 0.804 | 0.83 | 0.748 | 0.975 | 1.1 | 1.1 | 0.998 | 1.53 | 1.11 | 1.05 | 1.04 | 0.982 | – | 0.99
14 | NCI-H1563 | 0.932 | 0.858 | 0.864 | 0.681 | 0.845 | 0.73 | 0.714 | 0.757 | 0.732 | 1.13 | 1.17 | 1.18 | 1.17 | – | – | – | – | – | 0.696 | 1.1
15 | NCI-H1648 | – | – | – | – | 0.711 | 0.76 | 0.806 | 0.749 | 0.53 | – | – | – | – | – | – | – | – | – | – | –
16 | NCI-H1650 | 0.208 | 0.19 | 0.208 | 0.202 | 0.276 | 0.43 | 0.373 | 0.382 | 0.319 | – | – | – | – | 1.15 | 1.39 | 1.08 | 1.15 | 0.748 | 0.239 | –
17 | NCI-H1703 | 0.305 | 0.404 | 0.332 | 0.161 | – | – | – | – | – | 0.943 | 1.08 | 0.64 | 0.731 | 1.15 | 1.05 | 0.922 | 1.13 | 0.501 | 0.246 | 0.889
18 | NCI-H1793 | – | – | – | – | 0.821 | 0.95 | – | 0.81 | 0.627 | 0.722 | 0.676 | 0.841 | 0.779 | 0.379 | 0.462 | 0.259 | 0.346 | 0.22 | – | 0.862
19 | NCI-H1944 | – | – | – | – | 0.724 | 0.58 | 0.516 | 0.484 | 0.586 | 1.02 | 1.17 | 1.19 | 1.21 | 1.03 | 1.02 | 1.07 | 0.923 | 0.841 | – | 1.09
20 | NCI-H2170 | – | – | – | – | 0.292 | 0.254 | 0.268 | 0.262 | 0.29 | – | – | – | – | 0.665 | 0.613 | 0.524 | 0.598 | 0.509 | – | –
21 | NCI-H2342 | – | – | – | – | 0.853 | 0.74 | 0.717 | 0.706 | 0.765 | – | – | – | – | – | – | – | – | – | – | –
22 | SK-MES-1 | – | – | – | – | 0.993 | 0.997 | 0.878 | 0.433 | 0.909 | 1.02 | 1.07 | 0.984 | 0.955 | 0.995 | 1.41 | 1.12 | 1.08 | 0.867 | – | 1.01
23 | SW 900 | – | – | – | – | 0.493 | 0.488 | 0.476 | 0.509 | 0.406 | – | – | – | – | – | – | – | – | – | – | –
